From ChEMBL document CHEMBL1201862, “PubChem BioAssay data set” (2004)
The source made the active and inactive calls. Cut-off read from the data, not from the text of the source: actives have a measured IC50 and inactives only a lower limit.

Assays:
Type in all cases: functional
[1] = biological target: T1, Sentrin-specific protease 8 (Homo sapiens, UniProt Q96LD8); experiment: inhibition of human SENP8 cleavage activity – biochemical, luminescence, SAR follow-up (AID 504501)
T1 sequence (Q96LD8 whole entry): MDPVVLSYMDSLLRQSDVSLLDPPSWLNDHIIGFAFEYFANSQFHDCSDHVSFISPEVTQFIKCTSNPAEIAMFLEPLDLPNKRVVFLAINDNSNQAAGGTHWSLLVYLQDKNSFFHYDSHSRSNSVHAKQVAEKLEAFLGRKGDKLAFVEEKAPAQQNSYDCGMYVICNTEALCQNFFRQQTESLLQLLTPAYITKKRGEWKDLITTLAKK

Caspase-3 = biological target: T2, Caspase-3 (Homo sapiens, UniProt P42574); experiment: SAR Analysis of small molecule inhibitors of Sentrin-specific proteases (SENPs) using a Caspase-3 Selectivity assay. [Related pubchem assays (depositor defined):AID2540, AID2599, AID434973, AID489001]
T2 sequence (P42574 whole entry): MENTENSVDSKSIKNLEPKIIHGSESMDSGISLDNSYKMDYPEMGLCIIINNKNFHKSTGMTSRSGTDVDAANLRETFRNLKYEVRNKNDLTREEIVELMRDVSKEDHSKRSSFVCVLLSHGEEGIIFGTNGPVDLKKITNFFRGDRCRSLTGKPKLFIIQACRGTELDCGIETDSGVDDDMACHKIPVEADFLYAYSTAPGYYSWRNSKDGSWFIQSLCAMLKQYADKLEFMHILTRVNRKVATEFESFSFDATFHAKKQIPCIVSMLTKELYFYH

[2] = biological target: T3, Sentrin-specific protease 6 (Homo sapiens, UniProt Q9GZR1); experiment: SAR Analysis of small molecule inhibitors of Sentrin-specific protease 6 (SENP6) using a Luminescent assay. [Related pubchem assays (depositor defined):AID2582, AID2599]
T3 sequence (Q9GZR1 whole entry): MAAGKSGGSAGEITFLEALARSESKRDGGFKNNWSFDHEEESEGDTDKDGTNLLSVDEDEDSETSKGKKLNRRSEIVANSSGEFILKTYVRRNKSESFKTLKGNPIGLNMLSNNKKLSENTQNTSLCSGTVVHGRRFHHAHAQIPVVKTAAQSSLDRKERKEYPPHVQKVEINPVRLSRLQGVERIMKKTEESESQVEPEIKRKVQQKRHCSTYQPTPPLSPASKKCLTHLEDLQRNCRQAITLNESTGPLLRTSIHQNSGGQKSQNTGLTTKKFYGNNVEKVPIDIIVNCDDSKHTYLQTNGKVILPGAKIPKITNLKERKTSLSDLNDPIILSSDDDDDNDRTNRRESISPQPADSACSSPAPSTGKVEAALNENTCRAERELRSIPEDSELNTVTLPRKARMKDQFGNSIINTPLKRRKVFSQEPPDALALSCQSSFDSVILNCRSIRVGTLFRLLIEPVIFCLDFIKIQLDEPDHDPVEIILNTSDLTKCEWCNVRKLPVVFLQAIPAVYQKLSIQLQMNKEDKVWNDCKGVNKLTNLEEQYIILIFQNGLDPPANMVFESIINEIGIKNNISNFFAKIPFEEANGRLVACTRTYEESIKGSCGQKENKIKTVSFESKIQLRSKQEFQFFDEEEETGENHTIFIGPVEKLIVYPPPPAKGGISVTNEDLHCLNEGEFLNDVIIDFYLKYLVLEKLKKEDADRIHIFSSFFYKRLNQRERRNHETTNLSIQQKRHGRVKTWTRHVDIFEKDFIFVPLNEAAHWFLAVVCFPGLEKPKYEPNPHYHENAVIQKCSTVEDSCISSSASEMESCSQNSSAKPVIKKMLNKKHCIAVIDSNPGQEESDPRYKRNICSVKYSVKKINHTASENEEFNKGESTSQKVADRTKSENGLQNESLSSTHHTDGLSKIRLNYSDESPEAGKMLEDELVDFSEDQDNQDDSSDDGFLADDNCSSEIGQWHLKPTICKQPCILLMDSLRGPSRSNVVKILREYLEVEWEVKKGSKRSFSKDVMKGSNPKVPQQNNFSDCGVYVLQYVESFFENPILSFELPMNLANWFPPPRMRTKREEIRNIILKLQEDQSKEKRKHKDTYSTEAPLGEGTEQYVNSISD

[3] = biological target: T4, Sentrin-specific protease 7 (Homo sapiens, UniProt Q9BQF6); experiment: inhibition of human SENP7 cleavage activity – biochemical, luminescence, SAR follow-up (AID 504497)
T4 sequence (Q9BQF6 whole entry): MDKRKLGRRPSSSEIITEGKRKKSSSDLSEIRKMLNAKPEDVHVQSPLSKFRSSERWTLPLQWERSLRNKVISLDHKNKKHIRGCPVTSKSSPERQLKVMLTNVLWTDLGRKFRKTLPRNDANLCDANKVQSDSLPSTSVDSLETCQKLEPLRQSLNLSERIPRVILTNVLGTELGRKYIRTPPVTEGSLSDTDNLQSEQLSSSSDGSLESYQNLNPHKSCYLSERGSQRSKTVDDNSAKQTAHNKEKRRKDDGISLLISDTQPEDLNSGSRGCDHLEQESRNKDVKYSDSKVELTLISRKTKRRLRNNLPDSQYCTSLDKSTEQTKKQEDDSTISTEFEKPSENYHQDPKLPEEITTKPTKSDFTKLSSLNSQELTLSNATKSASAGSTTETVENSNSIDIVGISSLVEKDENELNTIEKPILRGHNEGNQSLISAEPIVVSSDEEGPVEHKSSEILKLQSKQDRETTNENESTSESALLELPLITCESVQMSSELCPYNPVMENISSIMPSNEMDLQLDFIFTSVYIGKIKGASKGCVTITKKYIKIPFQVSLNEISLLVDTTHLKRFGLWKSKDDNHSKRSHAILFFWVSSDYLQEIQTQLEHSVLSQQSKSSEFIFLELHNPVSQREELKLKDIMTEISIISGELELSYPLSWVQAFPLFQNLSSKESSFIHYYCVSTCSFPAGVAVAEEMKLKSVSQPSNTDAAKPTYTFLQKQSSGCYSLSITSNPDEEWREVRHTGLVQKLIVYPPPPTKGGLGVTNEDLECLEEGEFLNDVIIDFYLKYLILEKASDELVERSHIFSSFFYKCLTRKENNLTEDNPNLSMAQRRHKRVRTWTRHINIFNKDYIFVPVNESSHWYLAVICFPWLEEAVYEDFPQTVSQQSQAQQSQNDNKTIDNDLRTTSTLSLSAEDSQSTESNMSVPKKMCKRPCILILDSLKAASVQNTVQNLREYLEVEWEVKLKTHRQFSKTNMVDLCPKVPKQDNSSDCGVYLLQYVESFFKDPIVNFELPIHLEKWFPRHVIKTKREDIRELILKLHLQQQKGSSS

IC50 (Caspase-3): > 99 µM (inactive)
IC50 [2]: > 99 µM (inactive)
IC50 [3]: > 99 µM (inactive)
Compound: Clc1cccc(/N=C/c2ccc(OC3CSC3)cc2)c1
IC50 [1]: > 99 µM (inactive)
